Results from ChEMBL document CHEMBL1201862, “PubChem BioAssay data set” (2004).
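1) Cells in 96-well plates. 2) Compound, 48 h, 5 concentrations. 3) Linear interpolation between surrounding doses. 4) Unreached endpoint = highest concentration. GI50 marks 50% less growth.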 Calls of active or inactive are those of the source. Cut-off read from the data, not from the text of the source: active = GI50 up to about 1.1 µM and inactive = higher.

Legend:
Test in all cases: NCI-60 cell line screen, 48 h
UACC-62 = tested on: UACC-62
OVCAR-8 = tested on: OVCAR-8
MOLT-4 = tested on: MOLT-4
KM12 = tested on: KM12
LOX IMVI = tested on: LOX IMVI
A498 = tested on: A498
UO-31 = tested on: UO-31
MDA-N = tested on: MDA-N
MDA-MB-231 = tested on: MDA-MB-231
HOP-62 = tested on: HOP-62
NCI-H23 = tested on: NCI-H23
K562 = tested on: K562
SK-OV-3 = tested on: SK-OV-3
PC-3 = tested on: PC-3
ACHN = tested on: ACHN
UACC-257 = tested on: UACC-257
COLO 205 = tested on: COLO 205
MCF7 = tested on: MCF7
BT-549 = tested on: BT-549
M14 = tested on: M14
SNB-75 = tested on: SNB-75
OVCAR-3 = tested on: OVCAR-3
CCRF-CEM = tested on: CCRF-CEM
SW-620 = tested on: SW-620
MDA-MB-435 = tested on: MDA-MB-435
HOP-92 = tested on: HOP-92
RPMI-8226 = tested on: RPMI-8226
HL-60 = tested on: HL-60
SK-MEL-2 = tested on: SK-MEL-2
SN12C = tested on: SN12C
HT-29 = tested on: HT-29
786-0 = tested on: 786-0
SNB-19 = tested on: SNB-19
EKVX = tested on: EKVX
OVCAR-5 = tested on: OVCAR-5
SF-268 = tested on: SF-268
U-251 = tested on: U-251
SK-MEL-5 = tested on: SK-MEL-5
CAKI-1 = tested on: CAKI-1
HCT-15 = tested on: HCT-15
NCI-H226 = tested on: NCI-H226
Hs-578T = tested on: Hs-578T
HCT-116 = tested on: HCT-116
DU-145 = tested on: DU-145
SF-295 = tested on: SF-295
NCI-H460 = tested on: NCI-H460
SK-MEL-28 = tested on: SK-MEL-28
A549 = tested on: A549
NCI/ADR-RES = tested on: NCI/ADR-RES
SF-539 = tested on: SF-539
TK-10 = tested on: TK-10
T47D = tested on: T47D
SR = tested on: SR
IGROV-1 = tested on: IGROV-1
HCC 2998 = tested on: HCC 2998
OVCAR-4 = tested on: OVCAR-4
NCI-H522 = tested on: NCI-H522
RXF 393 = tested on: RXF 393
Malme-3M = tested on: Malme-3M

CC(=O)C(=NNc1ccc(-n2c(C)nc3ccccc3c2=O)cc1)C(C)=O
GI50 (UACC-62): > 100 µM (inactive) | GI50 (OVCAR-8): > 100 µM (inactive) | GI50 (MOLT-4): 22.9 µM (inactive) | GI50 (KM12): 55 µM (inactive) | GI50 (LOX IMVI): > 100 µM (inactive) | GI50 (A498): > 100 µM (inactive) | GI50 (UO-31): > 100 µM (inactive) | GI50 (MDA-N): > 100 µM (inactive) | GI50 (MDA-MB-231): > 100 µM (inactive) | GI50 (HOP-62): > 100 µM (inactive) | GI50 (NCI-H23): > 100 µM (inactive) | GI50 (K562): > 100 µM (inactive) | GI50 (SK-OV-3): > 100 µM (inactive) | GI50 (PC-3): > 100 µM (inactive) | GI50 (ACHN): > 100 µM (inactive) | GI50 (UACC-257): > 100 µM (inactive) | GI50 (COLO 205): > 100 µM (inactive) | GI50 (MCF7): > 100 µM (inactive) | GI50 (BT-549): > 100 µM (inactive) | GI50 (M14): > 100 µM (inactive) | GI50 (SNB-75): > 100 µM (inactive) | GI50 (OVCAR-3): > 100 µM (inactive) | GI50 (CCRF-CEM): > 100 µM (inactive) | GI50 (SW-620): > 100 µM (inactive) | GI50 (MDA-MB-435): > 100 µM (inactive) | GI50 (HOP-92): > 100 µM (inactive) | GI50 (RPMI-8226): 30 µM (inactive) | GI50 (HL-60): > 100 µM (inactive) | GI50 (SK-MEL-2): > 100 µM (inactive) | GI50 (SN12C): > 100 µM (inactive) | GI50 (HT-29): > 100 µM (inactive) | GI50 (786-0): > 100 µM (inactive) | GI50 (SNB-19): > 100 µM (inactive) | GI50 (EKVX): > 100 µM (inactive) | GI50 (OVCAR-5): > 100 µM (inactive) | GI50 (SF-268): > 100 µM (inactive) | GI50 (U-251): > 100 µM (inactive) | GI50 (SK-MEL-5): 11.7 µM (inactive) | GI50 (CAKI-1): > 100 µM (inactive) | GI50 (HCT-15): > 100 µM | GI50 (NCI-H226): 80.2 µM (inactive) | GI50 (Hs-578T): > 100 µM (inactive) | GI50 (HCT-116): > 100 µM (inactive) | GI50 (DU-145): > 100 µM (inactive) | GI50 (SF-295): > 100 µM (inactive) | GI50 (NCI-H460): > 100 µM (inactive) | GI50 (SK-MEL-28): > 100 µM (inactive) | GI50 (A549): > 100 µM (inactive) | GI50 (NCI/ADR-RES): > 100 µM (inactive) | GI50 (SF-539): > 100 µM (inactive) | GI50 (TK-10): > 100 µM (inactive) | GI50 (T47D): > 100 µM (inactive) | GI50 (SR): > 100 µM (inactive) | GI50 (IGROV-1): > 100 µM (inactive)

Nc1nc(SC/C=C/c2ccccc2)c2[nH]cnc2n1
GI50 (UACC-62): > 100 µM (inactive) | GI50 (OVCAR-8): 74.5 µM (inactive) | GI50 (MOLT-4): > 100 µM (inactive) | GI50 (KM12): > 100 µM (inactive) | GI50 (HCC 2998): > 100 µM (inactive) | GI50 (LOX IMVI): 53.1 µM (inactive) | GI50 (A498): > 100 µM (inactive) | GI50 (UO-31): 46.8 µM (inactive) | GI50 (MDA-N): > 100 µM (inactive) | GI50 (MDA-MB-231): > 100 µM (inactive) | GI50 (HOP-62): 83.2 µM (inactive) | GI50 (NCI-H23): > 100 µM (inactive) | GI50 (K562): 63.2 µM (inactive) | GI50 (SK-OV-3): > 100 µM (inactive) | GI50 (PC-3): > 100 µM (inactive) | GI50 (ACHN): 97.9 µM (inactive) | GI50 (OVCAR-4): > 100 µM (inactive) | GI50 (UACC-257): > 100 µM (inactive) | GI50 (COLO 205): > 100 µM (inactive) | GI50 (MCF7): > 100 µM (inactive) | GI50 (BT-549): 28.2 µM (inactive) | GI50 (M14): 71.8 µM (inactive) | GI50 (SNB-75): 28.6 µM (inactive) | GI50 (OVCAR-3): 30.4 µM (inactive) | GI50 (CCRF-CEM): 54.2 µM (inactive) | GI50 (SW-620): > 100 µM (inactive) | GI50 (NCI-H522): 19.5 µM (inactive) | GI50 (MDA-MB-435): > 100 µM (inactive) | GI50 (RXF 393): 51.5 µM (inactive) | GI50 (RPMI-8226): 91.4 µM (inactive) | GI50 (HL-60): 54.7 µM (inactive) | GI50 (SK-MEL-2): 91 µM (inactive) | GI50 (SN12C): > 100 µM (inactive) | GI50 (HT-29): > 100 µM (inactive) | GI50 (786-0): > 100 µM (inactive) | GI50 (SNB-19): > 100 µM (inactive) | GI50 (EKVX): > 100 µM (inactive) | GI50 (OVCAR-5): > 100 µM (inactive) | GI50 (SF-268): 74.8 µM (inactive) | GI50 (U-251): > 100 µM (inactive) | GI50 (SK-MEL-5): > 100 µM (inactive) | GI50 (CAKI-1): 38.7 µM (inactive) | GI50 (HCT-15): 32.8 µM | GI50 (NCI-H226): 35.2 µM (inactive) | GI50 (Hs-578T): 16.7 µM (inactive) | GI50 (HCT-116): > 100 µM (inactive) | GI50 (DU-145): 94.2 µM (inactive) | GI50 (SF-295): > 100 µM (inactive) | GI50 (NCI-H460): 72.1 µM (inactive) | GI50 (SK-MEL-28): > 100 µM (inactive) | GI50 (A549): > 100 µM (inactive) | GI50 (NCI/ADR-RES): 48.9 µM (inactive) | GI50 (SF-539): > 100 µM (inactive) | GI50 (TK-10): 22.4 µM (inactive) | GI50 (Malme-3M): > 100 µM (inactive) | GI50 (T47D): > 100 µM (inactive) | GI50 (SR): 45.7 µM (inactive) | GI50 (IGROV-1): 22.2 µM (inactive)
